Data: ChEMBL document CHEMBL3046237, “Efficacy of methyl nonyl ketone as an in-soil repellent for common voles (Microtus arvalis)” (2013)
Active and inactive are the calls of the source. The calls are words filed in the database; no cut-off is given here.

Columns and labels:
Microtus arvalis [1] = assay: Decrease in reopening of compound treated burrow entrances in forage grassland by Microtus arvalis (Common vole) assessed as increase in number of new burrow entrances at 3.97% ai applied as foam in field measured after 5 days of treatment (reference value: 40 +/-19.4%); format: functional; parameters: scale not given: the % may be the effect or the level left
Microtus arvalis [2] = assay: In-soil repellent activity against Microtus arvalis (Common vole) in forage grassland assessed as decrease in number of active burrow entrances at 3.97% ai applied as foam in field measured after 6 days of treatment relative to untreated control; format: functional
Microtus arvalis [3] = assay: In-soil repellent activity against Microtus arvalis (Common vole) in forage grassland assessed as decrease in number of active burrow entrances at 3.97% ai applied as foam in field for first 3 days and reapplied on day 10 measured at 24 hr after last drug dosage; format: functional, organism-based
Microtus arvalis [4] = assay: In-soil repellent activity against Microtus arvalis (Common vole) in forage grassland assessed as decrease in number of active burrow entrances at 3.97% ai applied as foam in field measured after 48 hr relative to control; format: functional
Microtus arvalis [5] = assay: In-soil repellent activity against Microtus arvalis (Common vole) in forage grassland assessed as decrease in number of active burrow entrances at 3.97% ai applied as foam in field for 3 days measured on day 7; format: functional, organism-based
Microtus arvalis [6] = assay: In-soil repellent activity against Microtus arvalis (Common vole) in forage grassland assessed as decrease in number of active burrow entrances at 3.97% ai applied as foam in field for 3 days measured on day 10; format: functional, organism-based
Microtus arvalis [7] = assay: In-soil repellent activity against Microtus arvalis (Common vole) in forage grassland assessed as decrease in number of active burrow entrances at 3.97% ai applied as foam in field measured after 24 hr relative to control; format: functional
Microtus arvalis [8] = assay: In-soil repellent activity against Microtus arvalis (Common vole) in forage grassland assessed as decrease in number of active burrow entrances at 3.97% ai applied as foam in field measured after 6 days of treatment (reference value: 48 +/-12%); format: functional
Microtus arvalis [9] = assay: In-soil repellent activity against Microtus arvalis (Common vole) in forage grassland assessed as decrease in number of active burrow entrances at 3.97% ai applied as foam in field measured after 3 days of treatment; format: functional, organism-based
Microtus arvalis [10] = assay: In-soil repellent activity against Microtus arvalis (Common vole) in forage grassland assessed as decrease in number of active burrow entrances at 3.97% ai applied as foam in field measured after 4-5 days of treatment; format: functional, organism-based
Microtus arvalis [11] = assay: Decrease in reopening of compound treated burrow entrances in forage grassland by Microtus arvalis (Common vole) assessed as increase in number of new burrow entrances at 3.97% ai applied as foam in field (reference value: 41 +/-21.1%); format: functional; parameters: scale not given: the % may be the effect or the level left
Microtus arvalis [12] = assay: In-soil repellent activity against Microtus arvalis (Common vole) in forage grassland assessed as decrease in number of active burrow entrances at 3.97% ai applied as foam in field for first 3 days and reapplied on day 10 measured on day 14; format: functional, organism-based

**Q.** Which Activity (Microtus arvalis [1]) does the source give for `CCCCCCCCCC(C)=O` [METHYL NONYL KETONE] here?
**A.** 95%

**Q.** What about the “fold change (FC)” value (Microtus arvalis [2]) of the same molecule?
**A.** 2

**Q.** What about the inhibition (Microtus arvalis [3]) of the same molecule?
**A.** Active

**Q.** And the “fold change (FC)” value (Microtus arvalis [4])?
**A.** 2

**Q.** And the inhibition (Microtus arvalis [5])?
**A.** Active

**Q.** And the inhibition (Microtus arvalis [6])?
**A.** inactive

**Q.** And the “fold change (FC)” value (Microtus arvalis [7])?
**A.** 3

**Q.** And the “inhibition (INH)” value (Microtus arvalis [8])?
**A.** 92%

**Q.** What about the inhibition (Microtus arvalis [9]) of the same molecule?
**A.** Active

**Q.** What about the inhibition (Microtus arvalis [10]) of the same molecule?
**A.** Active

**Q.** And the Activity (Microtus arvalis [11])?
**A.** 73%

**Q.** What about the inhibition (Microtus arvalis [12]) of the same molecule?
**A.** Active
